Where a SMILES comes first, the peptide text is derived from it. Where no end group is shown, it is not given here. The star is where a group is joined. Decanoyl = CCCCCCCCCC(=O)*; CH2Cl = ClC*

One assay has as its target T1, recombinant His-furin (Homo sapiens, UniProt P09958).
T1 construct: His
The assay can be described thus: Furin cleavage of HPV16 L2 capsid protein (immunoblot). Type of assay: biochemical. The note with it: 30 μM, 3 nM His-furin, 2 h 37° C. On the procedure:
FIG. 9. PolyR inhibits HPV16 L2 protein cleavage by furin and induces accumulation of internalized virus particles in late endosomal fraction. (A) Equal amount of HPV16 diluted in 50 μl furin assay buffer (1 mM CaCl2), 100 mM HEPES, 0.5% Triton X-100, 1 mM β-mercaptoethanol) was loaded into six tubes, […], in the presence of 1.3 μM furin inhibitor1 (Merck Millipore Corp., Burlington, Mass.), or 1 μM polyR. Samples were mixed with SDS-PAGE sample buffer and boiled before fractionation on 9% gel. Proteins were transferred onto PVDF membranes and after blocking, incubated with affinity-purified rabbit anti-HPV16 polyclonal antibody. Secondary donkey anti-rabbit horseradish peroxidase-coupled antibody was used for detection of HPV16 capsid proteins. (B) HaCaT cells grown on coverslips were incubated with HPV16 PsVs for one hour at 37° C. to initiate virus binding (and partial internalization) before adding 1 μM polyR and further incubated for seven hours. […]
Cleavage of the L2 minor capsid protein by the cellular pro-protein convertase, furin, is an essential step in infectious entry of HPVs. […] After two hours of incubation, HPV16 cleavage was assessed by immunoblotting using anti-HPV 16 polyclonal antibody. […]
For orientation: In western blotting, separated proteins are transferred to a membrane and probed.

In assay [1] the test system is HPV16 pseudovirions (PsVs). The assay can be described thus: HPV16 PsV luciferase infectivity assay, HaCaT cells pretreated with peptide. To be noted: 24 h; for inhibition of HPV16 PsV infection: 6 μM, 30 min pretreatment of HaCaT cells, 300 vge/cell. It is filed as cell-based.
Method: HaCaT cells were cultured in complete growing medium (CM; Dulbecco's modified Eagle's medium nutrient mixture F-12 HAM (Sigma-Aldrich, St. Louis, Mo.)) supplemented with 10% fetal bovine serum (FBS), amino acids (Sigma-Aldrich, St. Louis, Mo.), 2 mM L-glutamine, 100 U/ml penicillin and 1 μg/ml streptomycin (Sigma-Aldrich, St. Louis, Mo.), as previously described (Patterson et al., 2005. J Virol 79:6838-6847). Semi-confluent cells were pretreated for 30 minutes with arginine-rich peptides dissolved in CM (6 μM gp91dstat, gp91dstat (scramble), R9, and TAT, or 3 polyR) before the exposure to HaCaT cells and 300 vge/cell HPV16 pseudovirions (PsVs) packaging a luciferase reporter plasmid. Infectivity was scored after 24 hours of incubation at 37° C. (i.e., post infection) by Lumat LB9501 (Berthold Technologies GmbH & Co KG, Bad Wildbad, Germany) equipment, using the luciferase assay kit (Promega, Madison, Wis.) according to manufacturer's specification. Raw data were normalized to total cellular protein concentration. Graph summarizes triplicate treatments; error bars represent SEM.
Fifty percent inhibitory concentration (IC50) of HPV16 PsV infection of HaCaT cells by the compounds. For generation of an inhibitory concentration 50 (IC50) curves, cells were pretreated with the indicated concentration of arginine-rich peptides prior to HPV16 PsV exposure. Infectivity was scored after 24 hours of incubation at 37° C. and the data from two independent duplicate experiments were pooled and analyzed using non-linear regression (curve fit) function of PRISM software (GraphPad Software, Inc., LaJolla, Calif.).
Semi-confluent HaCaT cells maintained in CM, were pretreated for one hour with PrS dissolved in CM at the 0-5.8 μM concentrations before exposure to HPV16 PsVs (350 vge/cell). Infectivity was scored after 24 hours of incubation at 37° C. using a luminometer (Lumat LB9501, Berthold GmbH & Co., Bad Wildbad, Germany) and luciferase assay (Promega, Madison, Wis.) according to manufacturer's specification. Raw data were normalized to total cellular protein concentration.
For generation of an inhibitory concentration 50 (IC50) curve for PrS inhibition, data from two independent duplicate experiments was pooled and analyzed using the non-linear regression (curve fit) function of PRISM (GraphPad Software, Inc., La Jolla, Calif.).
3 μM PrS incubated for one hour at room temperature with 2 mg/ml high or low molecular weight HA in CM, prior to the addition to HaCaT cells. 350 vge/cell HPV16 PsVs were used for infection of cells in the presence or absence of PrS or HA:PrS complex. Infection was scored after 24 hours as described in FIG. 12.
HaCaT cells were pretreated with 6 μM concentrations of gp91dstat, gp91dstat (scramble), R9, or TAT, or 3 μM polyR. After 30 minutes of incubation at 37° C., cells were infected with HPV16 pseudovirions (PsVs) at a dose of 300 viral genome equivalents (vge)/cell, and the relative infectivity was quantified after 24 hours compared to infection in untreated cells (FIG. 1). Each treatment was performed in triplicate.
To evaluate the anti-HPV activity of PrS, HaCaT cells, a keratinocyte-derived cell line, was used as a model for analysis of HPV infection. […]
Infections were initiated using Luciferase-expressing HPV16 PsVs that were produced, isolated, and quantified as described previously (Surviladze et al., 2012. PLoS Pathogens 8: e1002519; Campos S K and Ozbun M A, 2009. PloS One 4:e4463). […]
Assay [2] relates to HPV16 PsVs. In words: Dissociation of cell-bound HPV16 PsVs from HaCaT cells (L1 immunoblot). To be noted: 5 μM added to HPV-bound HaCaT cells, 1 h 4° C. Type of assay: cell-based. As to the method:
(§1) (A) HPV16 PsVs were bound to HaCaT cells (one hour at 4° C.), before the addition of […]. After a one-hour incubation at 4° C., unbound virus was washed out, cells were lysed and analyzed for the content of HPV L1 protein. (B) HaCaT cells were exposed to HPV 16 PsV at 4° C. in the absence of polyR, simultaneously with polyR (0 h), or one hour after polyR treatment (+1 h). After extensive washing with PBS, cells were lysed and analyzed for the content of HPV16 L1 protein.
FIG. 19. […] HPV16 PsVs were bound to HaCaT cells (one hour in cold), before the addition of 5 μM PrS. After a one-hour incubation at 4° C., unbound virus was washed out, cells were lysed, and HPV L1 protein content was measured as described in FIG. 16.
To determine whether polyR could cause HPV16 dissociation from cells, HPV16 PsVs were bound to HaCaT cells for one hour at 4° C. After washing away unbound virus, HPV-bound cells were incubated with 3 μM polyR for one hour at 4° C.; control cells were untreated. Cells were lysed and analyzed for HPV L1 protein content. […]
The post-attachment inhibitory effects of PrS could be due the displacement of capsids from the cell surface. […] After a one-hour incubation at 4° C., unbound virus was washed out, cells were lysed, and the HPV L1 protein content was analyzed.

The subject of assay [3] is HPV16 PsVs. In words: HPV16 PsV binding to HaCaT cells at 4° C. (L1 immunoblot / immunofluorescence). The note with it: 4° C. 1 h. Type of assay: cell-based. On the procedure:
FIG. 4. PolyR treatment of host cells inhibits HPV16 binding to cells. (A) Confluent HaCaT cell monolayers were treated with 1 μM polyR (in CM) for 30 minutes, before adding 100 vge/cell HPV16 PsVs, and incubated at 4° C. for one hour (to promote binding but prevent virus internalization). After washing out of unbound virus, cells were lysed (25 mM Tris pH7.5, 150 mM NaCl, 1% Triton-X100 supplemented with protease inhibitors) and centrifuged at 16,000×g for 10 minutes. Protein concentrations in supernatant were measured using the Bradford method (Bio-Rad Laboratories, Inc., Hercules, Calif.). Samples were boiled in SDS-containing sample buffer, and aliquots containing equal amount of protein ([…] to 200 μg) separated by SDS-polyacrylamide gel electrophoresis (SDS-PAGE), using 10% gel. Proteins were transferred onto polyvinylidene difluoride (PVDF) membranes and subjected to analysis using anti-HPV16 L1 primary antibody (Camvir-1, sc-47699, Santa Cruz Biotechnology, Inc., Dallas, Tex.;1:5000 dilution) for detection of HPV16 major capsid protein, L1. Proteins were visualized by enhanced chemiluminescence (SUPERSIGNAL West Pico Chemiluminescent Substrate, Thermo Fisher Scientific, Inc., Waltham, Mass.) and exposed to film (Phenix Research Products, Candler, N.C.). (B) Immunofluorescence assays were performed essentially as described previously (Surviladze et al., 2012. PLoS Pathogens 8:e1002519). HaCaT cells were grown on coverslips at approximately 50% confluence and treated with 3 μM polyR for 30 minutes at 37° C. before the addition of 1000 vge of HPV16 PsVs per coverslip. Cells were incubated for one hour at 4° C. and washed several times with PBS, before the fixation with 4% paraformaldehyde (PFA). BSA-blocked cells were incubated with rabbit polyclonal HPV16 antibody (antibody was affinity-purified from rabbit anti-HPV VLP antisera). PBS-washed slides were incubated with donkey AF488-conjugated anti-rabbit IgG secondary antibody; phalloidin-rhodamine (Cytoskeleton, Inc., Denver, Colo.) was used for actin staining. After extensive washing with PBS, cells were mounted in Gold Antifade and immunofluorescent (IF) images were captured by confocal photo-microscopy.
as §1
FIG. 16. PrS pretreated cells binding of HPV16. Confluent HaCaT cell monolayers were treated with 1 μM PrS (in CM) before the addition of 200 vge/cell HPV16 PsVs and incubated at 4° C. for one hour (conditions to prevent virus internalization). After washing out of unbound virus, cells were lysed (25 mM Tris pH7.5, 150 mM NaCl, 1% Triton-X100 supplemented with protease inhibitors) and centrifuged at 16,000×g for 10 minutes. Protein concentrations in supernatant were measured using the Bradford method (Bio-Rad Laboratories, Inc., Hercules, Calif.). Samples were boiled in SDS-containing sample buffer, and aliquots containing equal amount of protein (˜50 μg to 200 μg) separated by SDS-polyacrylamide gel electrophoresis (SDS-PAGE) using 10% gel. […]

Assay [4] deals with HPV16 PsVs. In words: Direct pre-incubation of HPV16 PsVs with peptide, dilution below IC50, then infection of HaCaT cells. It is filed as cell-based. The note with it: 1 μM, 1 h 37° C., diluted below IC50, HaCaT cells 24 h. As to the method:
FIG. 3. […] HPV16 PsVs were incubated with 0.3 μM polyR for one hour at 37° C. The virus-polyR mixture was diluted with CM to reduce the polyR concentration below the IC50 value prior to incubation with HaCaT cells for 24 hours (HPV16-polyR). The control included untreated HPV16 PsVs (HPV16) added to HaCaT cells. Infection was measured after 24-hour incubation.
FIG. 15. Direct interaction of PrS to HPV16 PsVs. HPV16 PsVs were incubated with 1 μM PrS or HA:PrS complex for one hour at 37° C. Virus-PrS/or HA:PrS mixture was diluted with CM in order to reduce the PrS concentration below the IC50 value, and incubated with HaCaT cells for 24 hours. The control included untreated HPV16 PsVs. Infection was measured after 24 hours incubation as described in FIG. 12.
Typically, direct interaction of cationic inhibitors with the viral capsids of non-enveloped viruses (including HPV) is sufficient for antiviral activity. To determine whether polyR inhibited HPV16 infectivity by direct interaction with viral capsids, HPV16 PsVs were incubated with […] for one hour at 37° C. The virus-polyR mixture was diluted 1500-fold to reduce the polyR concentration below the IC50 value, then incubated with HaCaT cells. The control included cells exposed to HPV PsVs that were not treated with polyR. […]

T1 sequence (P09958 108-794): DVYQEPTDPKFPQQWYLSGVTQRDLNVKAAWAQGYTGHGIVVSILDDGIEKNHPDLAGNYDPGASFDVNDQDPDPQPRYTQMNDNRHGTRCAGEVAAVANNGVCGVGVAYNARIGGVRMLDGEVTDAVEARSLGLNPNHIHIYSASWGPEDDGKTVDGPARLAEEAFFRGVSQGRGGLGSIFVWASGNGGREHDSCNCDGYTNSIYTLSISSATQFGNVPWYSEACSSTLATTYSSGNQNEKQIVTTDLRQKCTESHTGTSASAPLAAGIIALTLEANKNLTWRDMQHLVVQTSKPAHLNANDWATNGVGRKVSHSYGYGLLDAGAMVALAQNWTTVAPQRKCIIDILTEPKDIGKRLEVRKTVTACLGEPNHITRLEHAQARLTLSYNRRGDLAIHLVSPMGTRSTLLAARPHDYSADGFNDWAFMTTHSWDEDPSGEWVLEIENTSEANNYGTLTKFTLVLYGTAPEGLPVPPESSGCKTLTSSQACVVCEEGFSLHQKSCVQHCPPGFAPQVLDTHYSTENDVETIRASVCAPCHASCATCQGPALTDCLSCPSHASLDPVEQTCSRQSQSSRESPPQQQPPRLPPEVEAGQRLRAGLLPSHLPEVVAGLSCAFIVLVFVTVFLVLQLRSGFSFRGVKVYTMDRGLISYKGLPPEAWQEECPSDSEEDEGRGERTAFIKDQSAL

In the case of `CCCCCCCCCC(=O)N[C@@H](CCCN=C(N)N)C(=O)N[C@H](C(=O)N[C@@H](CCCCN)C(=O)N[C@@H](CCCN=C(N)N)C(=O)CCl)C(C)C` [FI, reference compound] (Decanoyl-RVKR-CH2Cl), at recombinant His-furin, the “furin cleavage of L2 capsid protein” value is on record as “inhibited cleavage of the L2 capsid protein”.

As to `N=C(N)NCCC[C@H](NC(=O)[C@H](CCCNC(=N)N)NC(=O)[C@H](CCCNC(=N)N)NC(=O)[C@H](CCCNC(=N)N)NC(=O)[C@H](CCCNC(=N)N)NC(=O)[C@H](CCCNC(=N)N)NC(=O)[C@H](CCCNC(=N)N)NC(=O)[C@H](CCCNC(=N)N)NC(=O)[C@@H](N)CCCNC(=N)N)C(=O)O` [R9, arginine nonapeptide], in assay [1], the “inhibition of HPV16 PsV infection” value is on record as 66%.

On to “TAT: YGRKKRRQRRR; arginine-rich fragment of the HIV transactivator protein”, for which, in assay [1], the “inhibition of HPV16 PsV infection” value is given as 44%.

In the case of “protamine sulfate (MPRRRRSSSRPVRRRRRPRVSRRRRRRGGRRRR; also: sulfate salt; listed as Oncorhynchus keta) [PrS, sulfate form of salmon protamine, FDA approved arginine-rich polypeptide, reference compound]”, the IC50 (usually the concentration needed to halve the response being measured) in assay [1] (1 h pretreatment, 350 vge/cell, read-out: IC50 of HPV16 infection in HaCaT cells) was about 0.1 µM. The “release of HPV16 from membrane” value in the assay on HPV16 PsVs [2] was “did not induce HPV16 release from membrane”. For the same molecule, in the assay on HPV16 PsVs [3] (1 μM in CM, 200 vge/cell), the “HPV16 binding to pretreated cells (L1 Western blot)” value is “almost completely blocked HPV16 binding”. Moreover, the “inhibition of HPV16 binding at acidic conditions” value in the assay on HPV16 PsVs [3] (pH 4.5, 2 μM PrS (complex: 0.1% HMW HA:2 μM PrS)) stood at 60%. Moreover, the “effect of pre-incubation of HPV16 PsVs on infection” value in the assay on HPV16 PsVs [4] was “does not inhibit infection”.

Source of the values: patent publication US11045519B2, “Arginine-rich polypeptide compositions and methods of using same” (UNM Rainforest Innovations, priority 2017, dated 2021).
